Assay results: ChEMBL document CHEMBL5291721, “A preclinical secondary pharmacology resource illuminates target-adverse drug reaction associations of marketed drugs” (Nat Commun, 2023)

Key:
[1] = biological target: Beta-3 adrenergic receptor (Homo sapiens, UniProt P13945)
Estrogen receptor beta = Estrogen receptor beta (Homo sapiens, UniProt Q92731)
[2] = biological target: T1, Endothelin receptor type B (Homo sapiens, UniProt P24530)
T1 sequence (P24530 whole entry): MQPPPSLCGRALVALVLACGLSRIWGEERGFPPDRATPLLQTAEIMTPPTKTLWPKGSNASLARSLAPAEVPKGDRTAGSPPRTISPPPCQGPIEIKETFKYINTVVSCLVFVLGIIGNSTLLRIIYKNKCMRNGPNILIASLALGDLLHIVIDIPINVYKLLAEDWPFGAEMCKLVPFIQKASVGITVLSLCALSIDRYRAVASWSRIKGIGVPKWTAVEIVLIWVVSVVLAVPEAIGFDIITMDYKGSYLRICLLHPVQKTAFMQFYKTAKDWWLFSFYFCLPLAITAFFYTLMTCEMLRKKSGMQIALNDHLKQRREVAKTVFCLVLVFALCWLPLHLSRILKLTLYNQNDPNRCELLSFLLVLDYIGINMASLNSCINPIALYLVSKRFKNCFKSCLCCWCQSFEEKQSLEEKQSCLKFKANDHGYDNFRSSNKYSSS

Progesterone receptor = biological target: T2, Progesterone receptor (Homo sapiens, UniProt P06401)
T2 sequence (P06401 whole entry): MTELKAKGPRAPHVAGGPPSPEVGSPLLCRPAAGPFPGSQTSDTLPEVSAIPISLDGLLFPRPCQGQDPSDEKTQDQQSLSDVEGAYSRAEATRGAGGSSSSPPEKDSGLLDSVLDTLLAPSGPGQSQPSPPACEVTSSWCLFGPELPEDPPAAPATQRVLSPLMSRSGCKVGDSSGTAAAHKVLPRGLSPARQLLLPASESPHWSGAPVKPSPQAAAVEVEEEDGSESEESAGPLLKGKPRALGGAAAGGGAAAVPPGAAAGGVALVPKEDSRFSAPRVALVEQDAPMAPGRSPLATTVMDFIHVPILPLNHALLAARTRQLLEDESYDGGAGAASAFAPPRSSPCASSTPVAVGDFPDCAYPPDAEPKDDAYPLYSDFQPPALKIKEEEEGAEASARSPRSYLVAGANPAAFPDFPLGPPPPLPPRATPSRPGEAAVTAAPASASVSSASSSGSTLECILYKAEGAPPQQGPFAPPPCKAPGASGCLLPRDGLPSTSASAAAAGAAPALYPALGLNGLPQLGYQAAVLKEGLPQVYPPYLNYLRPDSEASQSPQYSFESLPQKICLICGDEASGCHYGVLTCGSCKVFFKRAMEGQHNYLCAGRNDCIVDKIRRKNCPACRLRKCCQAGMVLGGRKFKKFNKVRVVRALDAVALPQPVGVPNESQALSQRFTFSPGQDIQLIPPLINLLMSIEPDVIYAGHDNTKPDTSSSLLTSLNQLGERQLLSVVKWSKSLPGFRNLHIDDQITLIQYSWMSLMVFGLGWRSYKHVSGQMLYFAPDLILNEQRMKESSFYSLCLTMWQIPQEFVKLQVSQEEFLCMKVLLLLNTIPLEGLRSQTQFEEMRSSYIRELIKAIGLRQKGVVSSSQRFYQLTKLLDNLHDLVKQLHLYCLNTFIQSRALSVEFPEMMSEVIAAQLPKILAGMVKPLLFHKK

[3] = biological target: T3, Alpha-2A adrenergic receptor (Homo sapiens, UniProt P08913)
T3 sequence (P08913 whole entry): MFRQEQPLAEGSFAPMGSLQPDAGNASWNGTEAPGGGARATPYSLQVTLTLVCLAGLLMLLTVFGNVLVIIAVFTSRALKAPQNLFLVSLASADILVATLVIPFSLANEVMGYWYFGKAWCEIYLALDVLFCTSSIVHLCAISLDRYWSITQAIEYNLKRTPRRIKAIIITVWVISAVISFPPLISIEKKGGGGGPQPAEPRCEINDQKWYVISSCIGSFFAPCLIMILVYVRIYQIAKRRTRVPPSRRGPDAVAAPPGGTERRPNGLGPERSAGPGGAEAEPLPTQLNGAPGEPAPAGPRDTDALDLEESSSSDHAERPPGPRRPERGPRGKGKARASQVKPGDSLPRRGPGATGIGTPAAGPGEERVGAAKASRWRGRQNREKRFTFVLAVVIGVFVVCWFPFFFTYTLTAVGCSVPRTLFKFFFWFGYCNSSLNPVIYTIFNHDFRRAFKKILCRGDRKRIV

[4] = biological target: T4, 5-hydroxytryptamine receptor 1A (Homo sapiens, UniProt P08908)
T4 sequence (P08908 whole entry): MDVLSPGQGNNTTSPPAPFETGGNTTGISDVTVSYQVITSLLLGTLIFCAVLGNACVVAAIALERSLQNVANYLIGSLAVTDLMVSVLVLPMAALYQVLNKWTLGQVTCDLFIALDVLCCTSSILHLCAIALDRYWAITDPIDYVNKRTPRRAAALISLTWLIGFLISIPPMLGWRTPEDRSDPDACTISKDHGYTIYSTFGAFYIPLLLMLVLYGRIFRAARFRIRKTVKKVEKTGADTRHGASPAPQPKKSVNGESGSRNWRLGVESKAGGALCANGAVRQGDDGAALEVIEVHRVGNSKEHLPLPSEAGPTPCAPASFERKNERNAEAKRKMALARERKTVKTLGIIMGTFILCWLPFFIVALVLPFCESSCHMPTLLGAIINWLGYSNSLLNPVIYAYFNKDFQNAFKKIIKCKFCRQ

[5] = biological target: 5-hydroxytryptamine receptor 2A (Homo sapiens, UniProt P28223)
[6] = biological target: T5, Muscarinic acetylcholine receptor M2 (Homo sapiens, UniProt P08172)
T5 sequence (P08172 whole entry): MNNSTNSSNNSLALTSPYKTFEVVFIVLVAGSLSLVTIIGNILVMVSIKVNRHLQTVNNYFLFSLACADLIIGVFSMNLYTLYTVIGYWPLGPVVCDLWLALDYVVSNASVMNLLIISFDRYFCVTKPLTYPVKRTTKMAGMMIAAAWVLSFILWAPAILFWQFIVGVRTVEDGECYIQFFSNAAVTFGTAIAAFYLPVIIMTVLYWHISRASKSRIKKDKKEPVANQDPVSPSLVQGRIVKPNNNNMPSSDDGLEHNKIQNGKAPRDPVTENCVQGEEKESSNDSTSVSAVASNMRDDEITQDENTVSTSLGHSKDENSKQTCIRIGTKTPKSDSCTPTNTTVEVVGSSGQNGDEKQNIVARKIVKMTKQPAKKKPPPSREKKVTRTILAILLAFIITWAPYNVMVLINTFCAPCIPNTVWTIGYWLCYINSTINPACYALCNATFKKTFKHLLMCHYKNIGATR

[7] = biological target: 5-hydroxytryptamine receptor 2B (Homo sapiens, UniProt P41595)
Note: assay procedure not described here.

Chain of 5-hydroxytryptamine receptor 2B (P41595 whole entry): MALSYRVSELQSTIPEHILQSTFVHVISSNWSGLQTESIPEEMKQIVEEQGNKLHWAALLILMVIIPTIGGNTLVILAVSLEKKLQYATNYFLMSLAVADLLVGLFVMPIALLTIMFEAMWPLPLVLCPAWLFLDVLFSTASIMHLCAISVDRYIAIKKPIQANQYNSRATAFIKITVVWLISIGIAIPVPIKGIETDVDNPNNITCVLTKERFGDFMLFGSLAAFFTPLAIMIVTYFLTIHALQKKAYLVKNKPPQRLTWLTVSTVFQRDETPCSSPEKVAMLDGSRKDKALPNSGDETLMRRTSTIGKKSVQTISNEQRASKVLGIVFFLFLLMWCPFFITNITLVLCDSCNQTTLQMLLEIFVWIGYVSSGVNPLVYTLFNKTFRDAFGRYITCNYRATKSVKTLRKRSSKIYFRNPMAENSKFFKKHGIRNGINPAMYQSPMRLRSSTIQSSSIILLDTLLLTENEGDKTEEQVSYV
Chain of Estrogen receptor beta (Q92731 whole entry): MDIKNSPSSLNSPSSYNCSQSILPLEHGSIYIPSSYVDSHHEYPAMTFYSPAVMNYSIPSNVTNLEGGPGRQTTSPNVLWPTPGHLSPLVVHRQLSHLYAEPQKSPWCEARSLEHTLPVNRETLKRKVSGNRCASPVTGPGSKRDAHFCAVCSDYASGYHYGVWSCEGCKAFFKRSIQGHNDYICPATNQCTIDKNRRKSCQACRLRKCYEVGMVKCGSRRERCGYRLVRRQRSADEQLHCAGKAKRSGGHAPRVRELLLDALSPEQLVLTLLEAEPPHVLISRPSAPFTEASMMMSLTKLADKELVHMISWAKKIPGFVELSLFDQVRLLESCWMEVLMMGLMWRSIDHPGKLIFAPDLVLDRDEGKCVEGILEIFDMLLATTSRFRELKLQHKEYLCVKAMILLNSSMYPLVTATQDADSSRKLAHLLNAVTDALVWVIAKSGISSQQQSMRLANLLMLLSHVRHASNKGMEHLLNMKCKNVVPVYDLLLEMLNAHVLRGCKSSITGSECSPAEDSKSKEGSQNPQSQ
Chain of 5-hydroxytryptamine receptor 2A (P28223 whole entry): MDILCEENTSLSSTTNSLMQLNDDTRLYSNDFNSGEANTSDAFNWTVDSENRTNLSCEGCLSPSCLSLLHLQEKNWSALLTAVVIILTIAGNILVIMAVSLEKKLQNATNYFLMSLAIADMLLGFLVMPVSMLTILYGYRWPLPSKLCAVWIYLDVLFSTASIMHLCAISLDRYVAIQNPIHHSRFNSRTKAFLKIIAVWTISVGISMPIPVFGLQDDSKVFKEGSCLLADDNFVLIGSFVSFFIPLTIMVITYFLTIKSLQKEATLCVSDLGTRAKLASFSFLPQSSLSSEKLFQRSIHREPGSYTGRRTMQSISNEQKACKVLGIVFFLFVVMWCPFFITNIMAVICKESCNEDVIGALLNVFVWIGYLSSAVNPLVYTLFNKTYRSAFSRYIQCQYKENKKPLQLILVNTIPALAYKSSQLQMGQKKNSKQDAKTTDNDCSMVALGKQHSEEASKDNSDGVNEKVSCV
Chain of Beta-3 adrenergic receptor (P13945 whole entry): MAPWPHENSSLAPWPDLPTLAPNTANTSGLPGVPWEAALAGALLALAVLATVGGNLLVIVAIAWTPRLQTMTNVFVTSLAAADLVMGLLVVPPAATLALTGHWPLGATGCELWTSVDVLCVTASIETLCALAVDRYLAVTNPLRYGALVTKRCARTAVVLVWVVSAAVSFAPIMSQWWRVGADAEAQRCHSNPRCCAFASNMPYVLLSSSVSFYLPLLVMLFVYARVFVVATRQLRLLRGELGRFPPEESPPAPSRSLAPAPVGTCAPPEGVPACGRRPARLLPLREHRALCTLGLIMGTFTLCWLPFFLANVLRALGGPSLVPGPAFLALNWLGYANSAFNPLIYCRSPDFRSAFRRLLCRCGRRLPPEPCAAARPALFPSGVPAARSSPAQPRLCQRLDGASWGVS

Row | Compound | AC50 [1] | AC50 (Estrogen receptor beta) | AC50 [2] | AC50 (Progesterone receptor) | AC50 [3] | AC50 [4] | AC50 [5] | AC50 [6] | AC50 [7]
1 | NCCCC(O)(P(=O)(O)O)P(=O)(O)O [ALENDRONIC ACID] | > 30 µM | > 30 µM | > 30 µM | > 30 µM | > 10 µM | > 10 µM | – | – | –
2 | O=C(CCCN1CCC(n2c(O)nc3ccccc32)CC1)c1ccc(F)cc1 [BENPERIDOL] | – | – | – | – | – | – | 0.0035 µM | – | –
3 | CCN(CC)C(=O)C1CN2CCc3cc(OC)c(OC)cc3C2CC1OC(C)=O (stereo unspecified) [BENZQUINAMIDE] | – | – | – | – | 3.03 µM | – | 0.588 µM | – | –
4 | CCCC(C)(COC(N)=O)COC(=O)NC(C)C (stereo unspecified) [CARISOPRODOL] | > 30 µM | – | > 30 µM | > 30 µM | > 10 µM | > 10 µM | > 10 µM | > 10 µM | > 10 µM
5 | N[C@H](Cc1cc(I)c(Oc2cc(I)c(O)c(I)c2)c(I)c1)C(=O)O [DEXTROTHYROXINE] | > 30 µM | > 30 µM | > 30 µM | > 30 µM | > 10 µM | > 10 µM | > 10 µM | > 10 µM | > 10 µM
6 | Clc1ccc2c(c1)C(c1ccccc1)=NCc1nncn1-2 [ESTAZOLAM] | – | – | – | > 30 µM | – | > 10 µM | – | – | –
7 | CCCN(CC)C(CC)C(=O)Nc1c(C)cccc1C (stereo unspecified) [ETIDOCAINE] | – | – | – | – | – | > 30 µM | – | – | –
8 | CC(=O)OCC(CCn1cnc2cnc(N)nc21)COC(C)=O [FAMCICLOVIR] | > 30 µM | > 30 µM | > 30 µM | > 30 µM | > 10 µM | > 10 µM | – | > 10 µM | > 10 µM
9 | O=C(O)c1ccccc1Nc1cccc(C(F)(F)F)c1 [FLUFENAMIC ACID] | > 30 µM | > 30 µM | > 30 µM | > 30 µM | – | > 10 µM | 0.0771 µM | – | –
10 | Nc1ccn([C@@H]2O[C@H](CO)[C@@H](O)C2(F)F)c(=O)n1 [GEMCITABINE] | – | – | – | – | – | > 10 µM | – | – | –
11 | COC1=C(OC)C(=O)C(CCCCCCCCCCO)=C(C)C1=O [IDEBENONE] | > 30 µM | > 30 µM | > 30 µM | 27.6 µM | > 10 µM | > 10 µM | – | > 10 µM | 8.99 µM
12 | CC#CCn1c(N2CCC[C@@H](N)C2)nc2c1c(=O)n(Cc1nc(C)c3ccccc3n1)c(=O)n2C [LINAGLIPTIN] | > 30 µM | – | – | > 30 µM | > 10 µM | > 10 µM | > 10 µM | > 10 µM | > 10 µM
13 | O=C1CN=C(c2ccccc2)c2cc(Cl)ccc2N1 [NORDAZEPAM] | > 30 µM | > 30 µM | > 30 µM | > 30 µM | > 10 µM | > 10 µM | – | > 10 µM | > 10 µM
14 | CC(CCc1ccccc1)NC(C)C(O)c1ccc(O)cc1 (stereo unspecified) [NYLIDRIN] | > 30 µM | – | > 30 µM | > 30 µM | 9.39 µM | 3.38 µM | 2.5 µM | > 10 µM | 0.733 µM
15 | O=C1Nc2ccc(Cl)cc2C(c2ccccc2)=NC1O (stereo unspecified) [OXAZEPAM] | > 30 µM | > 30 µM | > 30 µM | > 30 µM | > 10 µM | > 10 µM | > 10 µM | > 10 µM | –
16 | CC1(C)C(C=C(Cl)Cl)C1C(=O)OCc1cccc(Oc2ccccc2)c1 (stereo unspecified) [PERMETHRIN] | – | – | – | – | > 10 µM | – | – | – | –
17 | CC(=O)c1ccc2c(c1)N(CCCN1CCC(CCO)CC1)c1ccccc1S2 [PIPERACETAZINE] | – | – | – | – | – | 0.0421 µM | 0.012 µM | – | –
18 | Cc1ccc(=O)n(-c2ccccc2)c1 [PIRFENIDONE] | – | – | – | – | – | – | > 10 µM | – | –
19 | NC(=O)CCC/N=C(\c1ccc(Cl)cc1)c1cc(F)ccc1O [PROGABIDE] | – | – | – | – | – | – | > 10 µM | – | –
20 | CC(C)CC(N(C)C)C1(c2ccc(Cl)cc2)CCC1 (stereo unspecified) [SIBUTRAMINE] | > 30 µM | > 30 µM | > 30 µM | > 30 µM | > 10 µM | > 10 µM | – | > 10 µM | –
21 | [H]/N=C(/N)N[C@H]1[C@H](O)[C@@H](O)[C@H](O[C@@H]2O[C@@H](C)[C@](O)(C=O)[C@H]2O[C@@H]2O[C@@H](CO)[C@H](O)[C@@H](O)[C@@H]2NC)[C@@H](N/C(N)=N\[H])[C@@H]1O [STREPTOMYCIN] | > 30 µM | > 30 µM | > 30 µM | > 30 µM | > 10 µM | > 10 µM | – | – | > 10 µM
22 | COc1ccc(C(CN(C)C)C2(O)CCCCC2)cc1 (stereo unspecified) [VENLAFAXINE] | – | – | – | > 30 µM | > 10 µM | > 10 µM | – | – | –
23 | N#C[C@@H]1CCCN1C(=O)CNC12CC3CC(CC(O)(C3)C1)C2 [VILDAGLIPTIN] | – | – | – | > 30 µM | > 10 µM | > 10 µM | > 10 µM | > 10 µM | > 10 µM
